Experimental data reported in ChEMBL document CHEMBL5614438, “CETZOLE Analogs as Potent Ferroptosis Inducers and Their Target Identification Using Covalent/Affinity Probes” (J Med Chem, 2024).
Each block holds one molecule with its values, some of them ahead of it. Calls of active or inactive are those of the source. No cut-off for these calls is given here.

How the values were obtained:
NCI-H522 [1] = assay: Cytotoxicity against human NCI-H522 cells assessed as reduction in cell viability incubated for 3 days by methylene blue staining based spectrophotometric analysis; type: functional; conditions: NCI-H522, 72 h, time 3 day
HT-1080 [2] = assay: Cytotoxicity against human HT-1080 cells assessed as reduction in cell viability incubated for 3 days by methylene blue staining based spectrophotometric analysis; type: functional; conditions: HT-1080, 72 h, time 3 day
MDA-MB-231 = assay: Cytotoxicity against human MDA-MB-231 cells assessed as reduction in cell viability incubated for 3 days by methylene blue staining based spectrophotometric analysis; type: functional; conditions: MDA-MB-231, 72 h, time 3 day
NCI-H522 [3] = assay: Induction of ferroptosis in human NCI-H522 cells assessed as cell viability at 6.93 uM incubated for 3 days in presence of liproxstatin-1 by methylene blue staining based spectrophotometric analysis relative to control; type: functional; conditions: NCI-H522, 72 h, time 3 day, read-out: Activity
NCI-H522 [4] = assay: Induction of ferroptosis in human NCI-H522 cells assessed as reduction in cell viability at 6.93 uM incubated for 3 days in presence of liproxstatin-1 by methylene blue staining based spectrophotometric analysis; type: functional; conditions: time 3.0 day
[5] = Drug localization in human HeLa cell nucleus incubated for 1 hr by TAMRA/Hoechst dye based fluorescent live cell imaging analysis; type: ADME, subcellular
[6] = Drug localization in human HeLa cell vacuole incubated for 1 hr by TAMRA/Hoechst dye based fluorescent live cell imaging analysis; type: ADME, subcellular
NCI-H522 [7] = assay: Cytotoxicity against human NCI-H522 cells overexpressing GFP-tagged SLC7A11 assessed as reduction in cell viability incubated for 3 days by methylene blue staining based spectrophotometric analysis; type: functional; conditions: NCI-H522, 72 h, time 3 day
NCI-H522 [8] = assay: Cytotoxicity against human NCI-H522 cells overexpressing GFP-tagged RV assessed as reduction in cell viability incubated for 3 days by methylene blue staining based spectrophotometric analysis; type: functional; conditions: NCI-H522, 72 h, time 3 day
U2OS = assay: Cytotoxicity against human U2OS cells assessed as reduction in cell viability incubated for 3 days by methylene blue staining based spectrophotometric analysis; type: functional; conditions: 72 h, time 3 day
NCI-H522 [9] = assay: Induction of cell death in human NCI-H522 cells at 10 uM incubated for 3 to 4 hrs by live cell imaging analysis relative to control; type: functional; conditions: time 3-4 hrs
NCI-H522 [10] = assay: Induction of ferroptosis in human NCI-H522 cells assessed as cell viability incubated for 3 days in presence of liproxstatin-1 by methylene blue staining based spectrophotometric analysis relative to control; type: functional; conditions: time 3 day
NCI-H522 [11] = assay: Induction of ferroptosis in human NCI-H522 cells incubated for 3 days in presence of liproxstatin-1 by methylene blue staining based spectrophotometric analysis; type: functional, cell-based; conditions: time 3.0 day
NCI-H522 [12] = assay: Induction of ferroptosis in human NCI-H522 cells assessed as increase in intracellular lipid peroxidation accumulation at 0.51 uM incubated for 6 hrs by C11 BODIPY 581/591 staining based flow cytometry; type: functional, cell-based
NCI-H522 [13] = assay: Induction of ferroptosis in human NCI-H522 cells assessed as cell death at 0.51 uM incubated for 3 days by methylene blue staining based spectrophotometric analysis relative to control; type: functional; conditions: time 3 day
NCI-H522 [14] = assay: Cytotoxicity against human NCI-H522 cells assessed as reduction in cell viability at 1 uM incubated for 3 days by methylene blue staining based spectrophotometric analysis; type: functional; conditions: time 3.0 day
HT-1080 [15] = assay: Cytotoxicity against human HT-1080 cells assessed as reduction in cell viability at 1 uM incubated for 3 days by methylene blue staining based spectrophotometric analysis; type: functional; conditions: time 3.0 day
WI-38 = assay: Cytotoxicity against human WI-38 cells assessed as reduction in cell viability at 1 uM incubated for 3 days by methylene blue staining based spectrophotometric analysis; type: toxicity; conditions: wi-38, 72 h, time 3 day
MEF = assay: Cytotoxicity against mouse MEF cells assessed as reduction in cell viability at 1 uM incubated for 3 days by methylene blue staining based spectrophotometric analysis; type: toxicity; conditions: 72 h, time 3 day
UO-31 [16] = assay: Cytotoxicity against human UO-31 cells assessed as reduction in cell growth by measuring cell viability at 10 uM relative to control; type: functional
786-0 [17] = assay: Cytotoxicity against human 786-0 cells assessed as reduction in cell growth by measuring cell viability at 10 uM relative to control; type: functional
CCRF-CEM = assay: Cytotoxicity against human CCRF-CEM cells assessed as reduction in cell growth at 10 uM; type: functional, cell-based
HL-60 = assay: Cytotoxicity against human HL-60 cells assessed as reduction in cell growth at 10 uM; type: functional, cell-based
K562 = assay: Cytotoxicity against human K562 cells assessed as reduction in cell growth at 10 uM; type: functional, cell-based
MOLT-4 = assay: Cytotoxicity against human MOLT-4 cells assessed as reduction in cell growth at 10 uM; type: functional, cell-based
RPMI-8226 = assay: Cytotoxicity against human RPMI-8226 cells assessed as reduction in cell growth at 10 uM; type: functional, cell-based
SR = assay: Cytotoxicity against human SR cells assessed as reduction in cell growth at 10 uM; type: functional, cell-based
OVCAR-3 = assay: Cytotoxicity against human OVCAR-3 cells assessed as reduction in cell growth at 10 uM; type: functional, cell-based
OVCAR-4 = assay: Cytotoxicity against human OVCAR-4 cells assessed as reduction in cell growth at 10 uM; type: functional, cell-based
OVCAR-5 = assay: Cytotoxicity against human OVCAR-5 cells assessed as reduction in cell growth at 10 uM; type: functional, cell-based
OVCAR-8 = assay: Cytotoxicity against human OVCAR-8 cells assessed as reduction in cell growth at 10 uM; type: functional, cell-based
NCI/ADR-RES = assay: Cytotoxicity against human NCI-ADR-RES cells assessed as reduction in cell growth at 10 uM; type: functional, cell-based
SK-OV-3 = assay: Cytotoxicity against human SK-OV-3 cells assessed as reduction in cell growth at 10 uM; type: functional, cell-based
786-0 [18] = assay: Cytotoxicity against human 786-0 cells assessed as reduction in cell growth at 10 uM; type: functional, cell-based
ACHN = assay: Cytotoxicity against human ACHN cells assessed as reduction in cell growth at 10 uM; type: functional, cell-based
CAKI-1 = assay: Cytotoxicity against human CAKI-1 cells assessed as reduction in cell growth at 10 uM; type: functional, cell-based
RXF 393 = assay: Cytotoxicity against human RXF 393 cells assessed as reduction in cell growth at 10 uM; type: functional, cell-based
SN12C = assay: Cytotoxicity against human SN12C cells assessed as reduction in cell growth at 10 uM; type: functional, cell-based
TK-10 = assay: Cytotoxicity against human TK-10 cells assessed as reduction in cell growth at 10 uM; type: functional, cell-based
UO-31 [19] = assay: Cytotoxicity against human UO-31 cells assessed as reduction in cell growth at 10 uM; type: functional, cell-based
IGROV-1 = assay: Cytotoxicity against human IGROV-1 cells assessed as reduction in cell growth by measuring cell viability at 10 uM relative to control; type: functional
[20] = target: Glucose-6-phosphate 1-dehydrogenase (Homo sapiens) (UniProt P11413); assay: Inhibition of G6PD in human HCT-116 cells using G6P as substrate assessed as reduction in enzyme activity by measuring absorbance at 100 uM incubated for 20 mins followed by G6P and […]; type: cell-based
Chain of Glucose-6-phosphate 1-dehydrogenase (Homo sapiens) (P11413 whole entry): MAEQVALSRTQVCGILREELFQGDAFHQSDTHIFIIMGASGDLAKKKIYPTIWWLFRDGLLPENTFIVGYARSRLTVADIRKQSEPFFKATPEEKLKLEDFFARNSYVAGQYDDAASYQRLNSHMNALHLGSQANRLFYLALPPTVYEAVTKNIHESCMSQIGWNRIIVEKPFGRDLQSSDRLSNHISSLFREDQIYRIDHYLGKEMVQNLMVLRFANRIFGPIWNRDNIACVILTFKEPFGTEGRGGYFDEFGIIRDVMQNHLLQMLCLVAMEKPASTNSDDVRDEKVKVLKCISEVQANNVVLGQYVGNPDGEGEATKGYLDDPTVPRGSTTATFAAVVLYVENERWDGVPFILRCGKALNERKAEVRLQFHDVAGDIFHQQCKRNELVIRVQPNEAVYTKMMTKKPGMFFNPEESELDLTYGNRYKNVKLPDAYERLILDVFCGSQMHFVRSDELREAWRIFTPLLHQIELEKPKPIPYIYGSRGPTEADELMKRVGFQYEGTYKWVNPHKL

[21] = target: Phospholipid hydroperoxide glutathione peroxidase GPX4 (Homo sapiens) (UniProt P36969); assay: Inhibition of recombinant GPX4 (unknown origin) at 100 uM incubated for 60 mins followed by NADPH addition
Chain of Phospholipid hydroperoxide glutathione peroxidase GPX4 (Homo sapiens) (P36969 whole entry): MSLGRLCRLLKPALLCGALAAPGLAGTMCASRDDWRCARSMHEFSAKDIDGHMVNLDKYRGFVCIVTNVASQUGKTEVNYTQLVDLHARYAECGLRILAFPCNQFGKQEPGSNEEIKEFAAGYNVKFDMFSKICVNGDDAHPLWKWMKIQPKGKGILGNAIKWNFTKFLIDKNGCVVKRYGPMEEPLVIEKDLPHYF

[22] = target: Glucose-6-phosphate 1-dehydrogenase (Homo sapiens) (UniProt P11413); assay: Inhibition of G6PD in human HCT-116 cells using G6P as substrate at 100 uM incubated for 20 mins followed by G6P and […]; type: cell-based
[23] = target: T1, Peroxiredoxin-4 (Homo sapiens) (UniProt Q13162); assay: Inhibition of PRDX4 (unknown origin)
T1 sequence (whole entry): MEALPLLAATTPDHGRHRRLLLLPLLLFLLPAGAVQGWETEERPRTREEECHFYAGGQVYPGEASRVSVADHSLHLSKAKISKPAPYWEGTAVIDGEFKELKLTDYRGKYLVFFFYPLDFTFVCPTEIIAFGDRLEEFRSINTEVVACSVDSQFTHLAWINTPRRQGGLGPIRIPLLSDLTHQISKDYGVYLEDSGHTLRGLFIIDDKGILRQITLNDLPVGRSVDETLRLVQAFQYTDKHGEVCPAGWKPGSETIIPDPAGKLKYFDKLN

NCI-H522 [24] = assay: Induction of ferroptosis in human NCI-H522 cells assessed as cell viability at 7.8 uM incubated for 3 days in presence of liproxstatin-1 by methylene blue staining based spectrophotometric analysis relative to control; type: functional; conditions: NCI-H522, 72 h, time 3 day, read-out: Activity
NCI-H522 [25] = assay: Induction of ferroptosis in human NCI-H522 cells assessed as reduction in cell viability at 7.8 uM incubated for 3 days in presence of liproxstatin-1 by methylene blue staining based spectrophotometric analysis; type: functional; conditions: time 3.0 day

Drug uptake [5]: Active | Drug uptake [6]: Active
SMILES: C#CCO/N=C1\CC(c2csc(C#C)n2)=C(C)C1O (stereo not drawn)
CC50 (NCI-H522 [1]): 2.31 µM | CC50 (HT-1080 [2]): 1.17 µM | CC50 (MDA-MB-231): 2.7 µM | viability at 6.93 µM (NCI-H522 [3]): 75% | Activity (NCI-H522 [4]): inactive

SMILES: C#Cc1nc(C2=C(C)C(OC(C)=O)/C(=N/OC(C)=O)C2)cs1 (stereo not drawn)
CC50 (NCI-H522 [1]): 0.17 µM | CC50 (NCI-H522 [7]): 1.59 µM | CC50 (NCI-H522 [8]): 0.26 µM | CC50 (HT-1080 [2]): 0.14 µM | CC50 (U2OS): 7.26 µM | CC50 (MDA-MB-231): 0.23 µM | Activity (NCI-H522 [9]): 50% | Activity (NCI-H522 [10]): 60% | Activity (NCI-H522 [11]): Active | Activity (NCI-H522 [12]): Active | Activity (NCI-H522 [13]): ~60% | Activity (NCI-H522 [14]): Active | Activity (HT-1080 [15]): Active | Activity (WI-38): Toxic | Activity (MEF): Toxic | Activity (UO-31 [16]): -95% | Activity (786-0 [17]): -95% | Activity (CCRF-CEM): inactive | Activity (HL-60): inactive | Activity (K562): inactive | Activity (MOLT-4): inactive | Activity (RPMI-8226): inactive | Activity (SR): inactive | Activity (OVCAR-3): inactive | Activity (OVCAR-4): inactive | Activity (OVCAR-5): inactive | Activity (OVCAR-8): inactive | Activity (NCI/ADR-RES): inactive | Activity (SK-OV-3): inactive | Activity (786-0 [18]): inactive | Activity (ACHN): inactive | Activity (CAKI-1): inactive | Activity (RXF 393): inactive | Activity (SN12C): inactive | Activity (TK-10): inactive | Activity (UO-31 [19]): inactive | Activity (IGROV-1): -95% | Activity [20]: 0.18 | inhibition [21]: Active | inhibition [22]: Active | inhibition [23]: inactive

SMILES: C#CCCC(=O)Nc1ccc(C(=O)c2ccc(NC(=O)CO/N=C3\CC(c4csc(C#C)n4)=C(C)C3O)cc2)cc1 (stereo not drawn)
CC50 (NCI-H522 [1]): 2.6 µM | CC50 (HT-1080 [2]): 1.2 µM | CC50 (MDA-MB-231): 1.33 µM | viability at 7.8 µM (NCI-H522 [24]): 45% | Activity (NCI-H522 [25]): inactive
